# Assay results as given in ChEMBL document CHEMBL1201862, “PubChem BioAssay data set” (2004).
#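 Five concentrations, 48 hours, 96-well plates. GI50 marks 50% less growth.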 Activity calls are given as the source filed them. Cut-off read from the data, not from the text of the source: active = GI50 up to about 1.1 µM and inactive = higher.
# What was measured:
# Test in all cases: NCI anticancer screen, dose series, 48 h
# SR = system: SR
# COLO 205 = system: COLO 205
# M19-MEL = system: M19-MEL
# MOLT-4 = system: MOLT-4
# SK-MEL-28 = system: SK-MEL-28
# OVCAR-3 = system: OVCAR-3
# SF-539 = system: SF-539
# MDA-N = system: MDA-N
# Hs-578T = system: Hs-578T
# EKVX = system: EKVX
# HCT-15 = system: HCT-15
# UACC-257 = system: UACC-257
# A549 = system: A549
# LOX IMVI = system: LOX IMVI
# UACC-62 = system: UACC-62
# NCI-H226 = system: NCI-H226
# U-251 = system: U-251
# DU-145 = system: DU-145
# MDA-MB-231 = system: MDA-MB-231
# NCI/ADR-RES = system: NCI/ADR-RES
SMILES,GI50 (SR),GI50 (COLO 205),GI50 (M19-MEL),GI50 (MOLT-4),GI50 (SK-MEL-28),GI50 (OVCAR-3),GI50 (SF-539),GI50 (MDA-N),GI50 (Hs-578T),GI50 (EKVX),GI50 (HCT-15) [µM],GI50 (UACC-257),GI50 (A549),GI50 (LOX IMVI),GI50 (UACC-62),GI50 (NCI-H226),GI50 (U-251),GI50 (DU-145),GI50 (MDA-MB-231),GI50 (NCI/ADR-RES)
O=C1c2c(nc3ccccc3c2-c2ccccc2)CN1Nc1ccccn1,58.1 µM (inactive),> 100 µM (inactive),> 100 µM (inactive),71.4 µM (inactive),> 100 µM (inactive),75 µM (inactive),> 75.2 µM (inactive),> 100 µM (inactive),21.2 µM (inactive),69 µM (inactive),> 75.5,> 92 µM (inactive),59.4 µM (inactive),> 76.9 µM (inactive),> 83 µM (inactive),61.1 µM (inactive),66.7 µM (inactive),67.9 µM (inactive),> 100 µM (inactive),43 µM (inactive)
Cc1cc(NCCCCCCCNc2cc(C)nc3cc([N+](=O)[O-])ccc23)c2ccc([N+](=O)[O-])cc2n1,1.53 µM (inactive),9.23 µM (inactive),12.4 µM (inactive),1.9 µM (inactive),4.34 µM (inactive),4.38 µM (inactive),8.63 µM (inactive),1.78 µM (inactive),1.86 µM (inactive),15.2 µM (inactive),2.55,15.1 µM (inactive),3.69 µM (inactive),2 µM (inactive),16.6 µM (inactive),18 µM (inactive),4.28 µM (inactive),3.08 µM (inactive),2.47 µM (inactive),
COc1cc2nc(-c3cccc(N(C)C)c3)cc(O)c2cc1OC,5.14 µM (inactive),3.85 µM (inactive),5.55 µM (inactive),5.19 µM (inactive),,1.52 µM (inactive),2.66 µM (inactive),,,16.5 µM (inactive),2.99,5.28 µM (inactive),4.06 µM (inactive),6.79 µM (inactive),3.44 µM (inactive),3.58 µM (inactive),,,,
O=C1CCC2(c3ccccc3)OCC([C@@H](O)c3ccccc3)N12 (stereo partly specified),> 100 µM (inactive),> 100 µM (inactive),> 100 µM (inactive),,> 100 µM (inactive),> 100 µM (inactive),> 100 µM (inactive),,,> 100 µM (inactive),> 100,> 100 µM (inactive),> 100 µM (inactive),> 100 µM (inactive),> 100 µM (inactive),,> 100 µM (inactive),,,
Clc1ccc2[nH]c(CCSCCc3nc4ccc(Cl)cc4[nH]3)nc2c1,0.181 µM (active),15.4 µM (inactive),14.4 µM (inactive),3.7 µM (inactive),,,16.5 µM (inactive),,,16.9 µM (inactive),13.2,12.7 µM (inactive),10 µM (inactive),12.8 µM (inactive),5.64 µM (inactive),13.4 µM (inactive),13.4 µM (inactive),,,
O=c1cc(-c2ccccc2)[nH]c2cc(Cl)cc(Cl)c12,3.16 µM (inactive),> 100 µM (inactive),35.5 µM (inactive),> 100 µM (inactive),> 100 µM (inactive),,29.5 µM (inactive),,,,6.79,> 100 µM (inactive),53.3 µM (inactive),70 µM (inactive),23.2 µM (inactive),37.8 µM (inactive),31.1 µM (inactive),,,
COc1cc(NCC(C#N)C#N)ccc1/N=N/c1ccc(Cl)cc1,12.8 µM (inactive),17.7 µM (inactive),19.3 µM (inactive),15.5 µM (inactive),27.2 µM (inactive),20.6 µM (inactive),25.1 µM (inactive),,,21.1 µM (inactive),20,,33.4 µM (inactive),18.2 µM (inactive),10.6 µM (inactive),30.5 µM (inactive),18.5 µM (inactive),,,
COC(=O)C1CC(C(=O)OC)c2nc3cc(C)c(C)cc3nc21 (stereo unspecified),,> 100 µM (inactive),> 100 µM (inactive),> 100 µM (inactive),> 100 µM (inactive),> 100 µM (inactive),> 100 µM (inactive),,,> 100 µM (inactive),> 100,> 100 µM (inactive),> 100 µM (inactive),> 100 µM (inactive),> 100 µM (inactive),> 100 µM (inactive),> 100 µM (inactive),,,
CC(C)C1CNC2N1C(=O)C2(C)OCc1ccccc1 (stereo unspecified),78.5 µM (inactive),> 100 µM (inactive),> 100 µM (inactive),80.5 µM (inactive),> 100 µM (inactive),> 100 µM (inactive),> 100 µM (inactive),,,> 100 µM (inactive),> 100,> 100 µM (inactive),> 100 µM (inactive),> 100 µM (inactive),> 100 µM (inactive),40.6 µM (inactive),> 100 µM (inactive),,,
O=C(O)c1ccc([Se][Se]c2ccc(C(=O)O)cc2)cc1,> 10 µM (inactive),32.9 µM (inactive),19.5 µM (inactive),,20.7 µM (inactive),22.5 µM (inactive),36.1 µM (inactive),,,23.6 µM (inactive),35.6,,25.8 µM (inactive),,19.3 µM (inactive),26.8 µM (inactive),21.1 µM (inactive),,,
O=C(/C=C/c1c(O)ccc2ccccc12)c1cccc(O)c1,42.7 µM (inactive),> 100 µM (inactive),17.5 µM (inactive),47 µM (inactive),> 100 µM (inactive),> 76.9 µM (inactive),> 100 µM (inactive),,,> 100 µM (inactive),> 100,76.9 µM (inactive),> 100 µM (inactive),41.8 µM (inactive),28.8 µM (inactive),> 100 µM (inactive),> 91.6 µM (inactive),,,
COc1cc2c(cc1OC)C(Cl)C(c1ccc(F)cc1)=C2Cl (stereo unspecified),3.01 µM (inactive),16.6 µM (inactive),16.8 µM (inactive),5.41 µM (inactive),17.3 µM (inactive),16.7 µM (inactive),16.3 µM (inactive),,11.7 µM (inactive),7.19 µM (inactive),12.9,14.9 µM (inactive),14.9 µM (inactive),11.6 µM (inactive),12.9 µM (inactive),22.7 µM (inactive),13.1 µM (inactive),14.9 µM (inactive),13.8 µM (inactive),13.6 µM (inactive)
CC1CC(=O)C(CC(=O)O)[C@H]1C(C(=O)C(=O)Nc1cc(Cl)ccc1Cl)[N+](=O)[O-] (stereo partly specified),> 100 µM (inactive),> 100 µM (inactive),> 100 µM (inactive),,> 100 µM (inactive),> 100 µM (inactive),> 100 µM (inactive),,,> 100 µM (inactive),> 100,,> 100 µM (inactive),> 100 µM (inactive),> 100 µM (inactive),> 100 µM (inactive),> 100 µM (inactive),,,
COc1cc(O)c2c(c1O)C(=O)c1cc(C)ncc1C2=O,,20.3 µM (inactive),7.91 µM (inactive),30.8 µM (inactive),26.5 µM (inactive),16.7 µM (inactive),17.4 µM (inactive),,,40.5 µM (inactive),16.6,15 µM (inactive),17 µM (inactive),13.9 µM (inactive),17.3 µM (inactive),45 µM (inactive),12.9 µM (inactive),,,
COC(=O)C1=CCON(c2ccccc2)C1c1ccccc1 (stereo unspecified),31.3 µM (inactive),65.8 µM (inactive),62.8 µM (inactive),27 µM (inactive),43.5 µM (inactive),> 100 µM (inactive),> 100 µM (inactive),,,42.1 µM (inactive),38,,40.2 µM (inactive),47.1 µM (inactive),49.8 µM (inactive),93.8 µM (inactive),40.3 µM (inactive),,,
